Test [1] deals with T1, unphosphorylated c-FMS kinase (uFMS, Seq. ID no. 1) (Homo sapiens, UniProt P07333).
T1 construct: purchased Millipore
T1 sequence (P07333 538-972): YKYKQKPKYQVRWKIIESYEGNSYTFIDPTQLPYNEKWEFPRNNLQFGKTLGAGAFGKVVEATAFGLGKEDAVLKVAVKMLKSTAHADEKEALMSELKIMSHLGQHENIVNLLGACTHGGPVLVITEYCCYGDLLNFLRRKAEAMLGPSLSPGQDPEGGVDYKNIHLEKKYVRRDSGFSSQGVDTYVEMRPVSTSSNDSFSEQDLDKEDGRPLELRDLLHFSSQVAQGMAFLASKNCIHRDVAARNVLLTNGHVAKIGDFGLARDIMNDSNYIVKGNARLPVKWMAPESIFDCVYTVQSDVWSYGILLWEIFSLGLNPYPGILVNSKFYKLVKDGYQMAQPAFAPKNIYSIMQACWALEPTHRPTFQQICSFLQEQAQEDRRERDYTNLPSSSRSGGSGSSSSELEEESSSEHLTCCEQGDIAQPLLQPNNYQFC
Put plainly: uFMS kinase enzymatic assay (pyruvate kinase/lactate dehydrogenase coupled). The following applies: ATP 500 μM, rate 3 to 4 h. Type of test: biochemical. As for the experimental part:
uFMS Kinase (Seq. ID No. 1) Assay
Activity of unphosphorylated c-FMS kinase (uFMS, Seq. ID no. 1) was determined by following the production of ADP from the FMS kinase reaction with ATP and poly E4Y as substrates through coupling with the pyruvate kinase/lactate dehydrogenase system (e.g., Schindler et al. Science (2000) 289: 1938-1942). In this assay, the oxidation of NADH (thus the decrease at A340 nm) was continuously monitored spectrophometrically. The reaction mixture (100 μL) contained FMS (purchased from Millipore) (10 nM), polyE4Y (1 mg/mL), MgCl2 (10 mM), pyruvate kinase (4 units), lactate dehydrogenase (0.7 units), phosphoenol pyruvate (1 mM), NADH (0.28 mM) and ATP (500 μM) in 90 mM Tris buffer containing 0.2% octyl-glucoside and 1% DMSO, pH 7.5. The inhibition reaction was started by mixing serial diluted test compound with the above reaction mixture. The absorption at 340 nm was monitored continuously for 4 hours at 30° C. on Synergy 2 plate reader. The reaction rate was calculated using the 3 to 4 h time frame. Percent inhibition was obtained by comparison of reaction rate with that of a control (i.e. in the absence of test compound). IC50 values were calculated from a series of percent inhibition values determined at a range of inhibitor concentrations using software routines as implemented in the GraphPad Prism software package.

Test [2] has as its target T2, unphosphorylated c-KIT kinase (uKIT, Seq. ID no. 2) (Homo sapiens, UniProt P10721).
T2 construct: uKit with N-terminal GST fusion used for screening
Put plainly: uKit kinase enzymatic assay (pyruvate kinase/lactate dehydrogenase coupled). In kind it is biochemical. The note with it: ATP 2000 μM, rate 3 to 4 h. On the procedure:
uKit Kinase (Seq. ID No. 2) Assay
Activity of unphosphorylated c-KIT kinase (uKIT, Seq. ID no. 2) was determined by following the production of ADP from the KIT kinase reaction with ATP and poly E4Y as substrates through coupling with the pyruvate kinase/lactate dehydrogenase system (e.g., Schindler et al. Science (2000) 289: 1938-1942). In this assay, the oxidation of NADH (thus the decrease at A340 nm) was continuously monitored spectrophometrically. The reaction mixture (100 μl) contained unphosphorylated KIT (12 nM), polyE4Y (1 mg/mL), MgCl2 (10 mM), pyruvate kinase (4 units), lactate dehydrogenase (0.7 units), phosphoenol pyruvate (1 mM), and NADH (0.28 mM) and ATP (2000 μM) in 90 mM Tris buffer containing 0.2% octyl-glucoside and 1% DMSO, pH 7.5. The inhibition reaction was started by mixing serial diluted test compound with the above reaction mixture. The absorption at 340 nm was monitored continuously for 4 hours at 30° C. on Synergy 2 plate reader (BioTech). Reaction rates around 3 to 4 h time frame were used to calculate % inhibitions, from which IC50 values were generated.

Test [3] deals with T3, unphosphorylated PDGFRβ kinase (uPDGFRβ, Seq. ID No. 3) (Homo sapiens, UniProt P09619).
T3 construct: purchased DeCode
T3 sequence (P09619 557-1106): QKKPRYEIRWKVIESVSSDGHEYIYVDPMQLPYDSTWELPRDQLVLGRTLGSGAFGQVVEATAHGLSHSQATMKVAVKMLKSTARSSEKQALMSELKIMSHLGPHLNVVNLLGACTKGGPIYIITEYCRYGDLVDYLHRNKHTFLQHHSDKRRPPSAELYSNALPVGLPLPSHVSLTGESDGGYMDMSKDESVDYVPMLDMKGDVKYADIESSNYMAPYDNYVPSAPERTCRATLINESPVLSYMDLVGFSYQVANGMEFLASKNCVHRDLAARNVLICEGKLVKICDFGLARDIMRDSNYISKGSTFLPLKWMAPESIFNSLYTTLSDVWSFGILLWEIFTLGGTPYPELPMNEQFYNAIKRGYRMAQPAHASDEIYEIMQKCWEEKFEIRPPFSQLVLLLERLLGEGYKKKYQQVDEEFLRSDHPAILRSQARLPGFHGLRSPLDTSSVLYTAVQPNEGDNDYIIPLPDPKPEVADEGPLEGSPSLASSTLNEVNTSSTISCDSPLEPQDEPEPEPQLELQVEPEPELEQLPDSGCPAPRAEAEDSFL
Put plainly: uPDGFRβ kinase enzymatic assay (pyruvate kinase/lactate dehydrogenase coupled). In kind it is biochemical. The note with it: ATP 500 μM, rate 1.5 to 2.5 h. On the procedure: Unphosphorylated PDGFRβ (uPDGFRβ) Kinase (Seq. ID No. 3) Assay
Activity of unphosphorylated PDGFRβ kinase (uPDGFRβ, Seq. ID No. 3) was determined by following the production of ADP from the kinase reaction with ATP and poly E4Y as substrates through coupling with the pyruvate kinase/lactate dehydrogenase system (e.g., Schindler et al. Science (2000) 289: 1938-1942). In this assay, the oxidation of NADH (thus the decrease at A340 nm) was continuously monitored spectrophometrically. The reaction mixture (100 μL) contained PDGFRβ (DeCode, 15.7 nM), polyE4Y (2.5 mg/mL), MgCl2 (10 mM), pyruvate kinase (4 units), lactate dehydrogenase (0.7 units), phosphoenol pyruvate (1 mM) and NADH (0.28 mM) and ATP (500 μM) in a 90 mM Tris buffer containing 0.2% octyl-glucoside and 1% DMSO, at pH 7.5. The inhibition reaction was started by mixing serial diluted test compound with the above reaction mixture. The absorption at 340 nm was monitored continuously for 4 h at 30° C. on a Polarstar Optima or Synergy 2 plate reader. The reaction rate was calculated using the 1.5 to 2.5 h time frame. Percent inhibition was obtained by comparison of reaction rate with that of a control (i.e. with no test compound). IC50 values were calculated from a series of percent inhibition values determined at a range of inhibitor concentrations using software routines as implemented in the GraphPad Prism software package.

Test [4] has as its system M-NFS-60 cells. Put plainly: M-NFS-60 cell proliferation assay (resazurin). In kind it is cell-based. The note with it: 67 h incubation. As for the experimental part: M-NFS-60 cells (catalog #CRL-1838) were obtained from the American Type Culture Collection (ATCC, Manassas, Va.). Briefly, cells were grown in suspension in RPMI 1640 medium supplemented with 10% characterized fetal bovine serum (Invitrogen, Carlsbad, Calif.), 0.05 mM 2-mercaptoethanol, and 20 ng/mL mouse recombinant macrophage colony stimulating factor (M-CSF) at 37° C., 5% CO2, and 95% humidity. Cells were allowed to expand until reaching saturation at which point they were subcultured or harvested for assay use.
M-NFS-60 Cell Proliferation Assay
A serial dilution of test compound was dispensed into a 384-well black clear bottom plate (Corning, Corning, N.Y.). Two thousand five hundred cells were added per well in 50 μL complete growth medium. Plates were incubated for 67 h at 37° C., 5% CO2, and 95% humidity. At the end of the incubation period 10 μL of a 440 μM solution of resazurin (Sigma, St. Louis, Mo.) in PBS was added to each well and incubated for an additional 5 h at 37° C., 5% CO2, and 95% humidity. Plates were read on a Synergy2 reader (Biotek, Winooski, Vt.) using an excitation of 540 nm and an emission of 600 nm. IC50 values were calculated from a series of percent inhibition values determined at a range of inhibitor concentrations using software routines as implemented in the GraphPad Prism software package.
A general note: Resazurin is reduced to fluorescent resorufin, in cell work by metabolically active cells.

In test [5] the test system is osteoclast precursors. Put plainly: Osteoclast tartrate-resistant acid phosphatase assay. The following applies: RANKL and M-CSF, 7-14 days, tartrate-resistant acid phosphatase activity. Type of test: cell-based. As for the experimental part:
Osteoclast Tartrate-Resistant Acid Phosphatase Assay
A serial dilution of test compound was dispensed into a 384-well black clear bottom plate (Nalge Nunc International, Rochester, N.Y.). Compound was diluted by the addition of DMEM media supplemented with 10% characterized fetal bovine serum (Invitrogen, Carlsbad, Calif.). Diluted compound was transferred to a 384-well black clear bottom plate. Two-thousand five hundred osteoclast precursors (Lonza, Walkersville, Md.) were added per well in growth media containing Receptor Activator of Nuclear Factor Kappa-beta ligand (RANKL) and M-CSF (R&D Systems, Minneapolis, Minn.). Plates were incubated for 7-14 days at 37 degrees Celsius, 5% CO2, and 95% humidity to allow differentiation of osteoclast precursors. At the end of the incubation period, 10 μL of supernatant from each well was transferred to a clear 384-well plate. Tartrate-resistant acid phosphatase activity in the supernatant samples was determined using an acid phosphatase assay kit (Sigma, St. Louis, Mo.). Absorbance was measured at 550 nm using a plate reader. Data was analyzed using Prism software (Graphpad, San Diego, Calif.) to calculate IC50 values.

T2 sequence (P10721 with tags, fused parts or gaps): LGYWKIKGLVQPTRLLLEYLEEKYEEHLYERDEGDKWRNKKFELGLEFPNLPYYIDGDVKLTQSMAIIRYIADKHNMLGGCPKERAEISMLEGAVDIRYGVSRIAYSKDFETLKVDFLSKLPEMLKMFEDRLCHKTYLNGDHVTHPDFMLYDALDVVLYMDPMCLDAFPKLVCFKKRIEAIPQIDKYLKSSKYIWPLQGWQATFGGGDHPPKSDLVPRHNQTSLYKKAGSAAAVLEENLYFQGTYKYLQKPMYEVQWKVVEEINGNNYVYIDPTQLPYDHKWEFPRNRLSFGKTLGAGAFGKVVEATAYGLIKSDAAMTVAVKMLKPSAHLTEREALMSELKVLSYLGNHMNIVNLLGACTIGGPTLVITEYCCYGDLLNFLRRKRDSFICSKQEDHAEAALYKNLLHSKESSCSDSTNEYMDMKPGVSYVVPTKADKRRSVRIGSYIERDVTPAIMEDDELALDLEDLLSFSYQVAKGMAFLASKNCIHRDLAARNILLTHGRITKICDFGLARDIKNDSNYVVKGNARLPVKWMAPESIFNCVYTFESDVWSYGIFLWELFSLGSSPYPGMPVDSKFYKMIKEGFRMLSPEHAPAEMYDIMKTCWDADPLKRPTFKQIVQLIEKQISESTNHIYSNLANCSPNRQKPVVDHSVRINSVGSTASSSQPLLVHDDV

As a reminder, the IC50 is the concentration at which inhibition is half-maximal. As to `Cc1nc(-n2nc(C3CCCC3)[nH]c2=O)ccc1Oc1ccnc(-c2cnn(C)c2)c1` [Example 34, 3-cyclopentyl-1-(6-methyl-5-((2-(1-methyl-1H-pyrazol-4-yl)pyridin-4-yl)oxy)pyridin-2-yl)-1H-1,2,4-triazol-5(4H)-one], the concentration for half-maximal inhibition (IC50) is no more than 10 nM in test [1]; no more than 10 nM in test [2]; 10 to 100 nM in test [3]; no more than 10 nM in test [4]; 10 to 100 nM in test [5].
Take `Cc1nc(-n2nc(C(C)(C)C)[nH]c2=O)ccc1Oc1ccnc(-c2cn(C)cn2)c1` [Example 23, 3-(tert-butyl)-1-(6-methyl-5-((2-(1-methyl-1H-imidazol-4-yl)pyridin-4-yl)oxy)pyridin-2-yl)-1H-1,2,4-triazol-5(4H)-one]: the IC50 was 10 to 100 nM in test [1]; greater than 1000 nM in test [2]; greater than 1000 nM in test [3]; 100 to 1000 nM in test [4]; 10 to 100 nM in test [5].
For the molecule `Cc1nc(-n2nc(C(C)(C)C)[nH]c2=O)ccc1Oc1ccnc(-c2cn[nH]c2)c1` [Example 24, 1-(5-((2-(1H-pyrazol-4-yl)pyridin-4-yl)oxy)-6-methylpyridin-2-yl)-3-(tert-butyl)-1H-1,2,4-triazol-5(4H)-one], the IC50 in test [1] was 100 to 1000 nM; in test [2], greater than 1000 nM; in test [3], greater than 1000 nM; in test [4] it was 100 to 1000 nM; in test [5], 100 to 1000 nM.
As to `Cc1nc(-n2nc(C(C)(C)C)[nH]c2=O)ccc1Oc1ccnc(NC(=O)C2CCN(C)CC2)c1` [Example 21, N-(4-((6(3-(tert-butyl)-5-oxo-4,5-dihydro-1H-1,2,4-triazol-1-yl)-2-methylpyridin-3-yl)oxy)pyridin-2-yl)-1-methylpiperidine-4-carboxamide], the IC50 in test [1] was 100 to 1000 nM; in test [2] it was greater than 1000 nM; in test [3], greater than 1000 nM; in test [4] it was greater than 1000 nM; in test [5], 100 to 1000 nM.
As to `Cc1nc(-n2nc(C(C)(C)C)[nH]c2=O)ccc1Oc1ccnc(-c2ccc(N3CCN(C)CC3)nc2)c1` [Example 40, 3-(tert-butyl)-1-(6-methyl-5-((6′-(4-methylpiperazin-1-yl)-[2,3′-bipyridin]-4-yl)oxy)pyridin-2-yl)-1H-1,2,4-triazol-5(4H)-one], the IC50 in test [1] was 10 to 100 nM; in test [2], 100 to 1000 nM; in test [3], greater than 1000 nM; in test [4] it was 10 to 100 nM; in test [5], 10 to 100 nM.
For the molecule `Cc1nc(-n2nc(C(C)(C)C)[nH]c2=O)ccc1Oc1ccnc(-c2ccnc(N3CCN(C)CC3)c2)c1` [Example 41, 3-(tert-butyl)-1-(6-methyl-5-((2′-(4-methylpiperazin-1-yl)-[2,4′-bipyridin]-4-yl)oxy)pyridin-2-yl)-1H-1,2,4-triazol-5(4H)-one], the IC50 in test [1] was 100 to 1000 nM; in test [2] it was greater than 1000 nM; in test [3] it was greater than 1000 nM; in test [4], greater than 1000 nM; in test [5] it was 100 to 1000 nM.
In the case of `CC(=O)Nc1cc(Oc2ccc(-n3nc(C(C)(C)C)[nH]c3=O)nc2C)ccn1` [Example 11, N-(4-((6-(3-(tert-butyl)-5-oxo-4,5-dihydro-1H-1,2,4-triazol-1-yl)-2-methylpyridin-3-yl)oxy)pyridin-2-yl)acetamide], the IC50 in test [1] was 10 to 100 nM; in test [2], greater than 1000 nM; in test [3], greater than 1000 nM; in test [4], 100 to 1000 nM; in test [5] it was 100 to 1000 nM.
Turning to `Cc1nc(-n2nc(C(C)(C)C)[nH]c2=O)ccc1Oc1ccnc(NC(=O)C2CC2)c1` [Example 45, N-(4-((6-(3-(tert-butyl)-5-oxo-4,5-dihydro-1H-1,2,4-triazol-1-yl)-2-methylpyridin-3-yl)oxy)pyridin-2-yl)cyclopropanecarboxamide], the IC50 is 100 to 1000 nM in test [1]; greater than 1000 nM in test [2]; greater than 1000 nM in test [3]; 100 to 1000 nM in test [4]; 10 to 100 nM in test [5].
As for `COCc1nn(-c2ccc(Oc3ccnc(-c4cnn(C)c4)c3)c(C)n2)c(=O)[nH]1` [Example 17, 3-(methoxymethyl)-1-(6-methyl-5-((2-(1-methyl-1H-pyrazol-4-yl)pyridin-4-yl)oxy)pyridin-2-yl)-1H-1,2,4-triazol-5(4H)-one], the 50% inhibitory concentration (IC50) in test [1] was 100 to 1000 nM; in test [2] it was greater than 1000 nM; in test [4], greater than 1000 nM; in test [5], greater than 1000 nM.
